According to BindingDB's records for doi:10.1021/jm960697s (Pfizer, 1997):

Columns and labels:
[1] = molecular target: Alpha-1B adrenergic receptor (Mesocricetus auratus) (UniProt P18841); assay: Binding affinity was tested on cloned hamster Alpha-1B adrenergic receptor
[2] = molecular target: T1, 3-oxo-5-alpha-steroid 4-dehydrogenase 1 (Homo sapiens, UniProt P18405); assay: Binding affinity for human 5 alpha reductase 1 isozyme
T1 sequence (P18405 whole entry): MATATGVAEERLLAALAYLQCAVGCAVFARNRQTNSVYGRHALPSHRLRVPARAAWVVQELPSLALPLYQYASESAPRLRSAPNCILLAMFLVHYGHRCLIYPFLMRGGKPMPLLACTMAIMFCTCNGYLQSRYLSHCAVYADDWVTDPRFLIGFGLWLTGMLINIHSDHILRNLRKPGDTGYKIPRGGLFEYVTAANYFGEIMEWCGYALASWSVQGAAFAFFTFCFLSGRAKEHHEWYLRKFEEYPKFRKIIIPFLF

Sequence of Alpha-1B adrenergic receptor (Mesocricetus auratus) (P18841 whole entry, looked up): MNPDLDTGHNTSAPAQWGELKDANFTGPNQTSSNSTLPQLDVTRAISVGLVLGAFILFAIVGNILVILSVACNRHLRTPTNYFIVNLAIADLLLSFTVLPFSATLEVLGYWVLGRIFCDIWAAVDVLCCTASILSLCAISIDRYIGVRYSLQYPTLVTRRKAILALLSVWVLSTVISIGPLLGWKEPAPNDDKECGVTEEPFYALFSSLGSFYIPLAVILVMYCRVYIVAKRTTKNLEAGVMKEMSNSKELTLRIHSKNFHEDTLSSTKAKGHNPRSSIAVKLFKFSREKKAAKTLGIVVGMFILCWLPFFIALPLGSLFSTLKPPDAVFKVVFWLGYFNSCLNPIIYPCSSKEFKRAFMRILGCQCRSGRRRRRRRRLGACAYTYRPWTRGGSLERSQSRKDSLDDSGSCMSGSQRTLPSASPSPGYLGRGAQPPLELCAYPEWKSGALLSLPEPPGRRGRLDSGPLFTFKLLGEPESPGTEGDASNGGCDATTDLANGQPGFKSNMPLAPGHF

Row | SMILES | IC50 [1] [nM] | Ki [2] [nM]
1 | COc1ccc(CC2c3cc(OC)c(OC)cc3CCN2c2nc(N)c3cc(OC)c(OC)cc3n2)cc1OC (stereo not drawn) [2-[1-(3,4-Dimethoxy-benzyl)-6,7-dimethoxy-3,4-dihydro-1H-isoquinolin-2-yl]-6,7-dimethoxy-quinazolin-4-ylamine] | 206 | 
2 | CC1C(=O)CC[C@@]2(C)C1=NCC1C2CC[C@@]2(C)C1CC[C@@H]2C(=O)Nc1cc(C(F)(F)F)ccc1C(F)(F)F (stereo partly drawn) [(1S,9aR,11aS)-6,9a,11a-Trimethyl-7-oxo-2,3,3a,3b,4,5,7,8,9,9a,9b,10,11,11a-tetradecahydro-1H-cyclopenta[i]phenanthridine-1-carboxylic acid (2,5-bis-trifluoromethyl-phenyl)-amide] |  | 0.2
3 | C[C@]12CCC(=O)C(Cl)C1=NCC1C2CC[C@@]2(C)C1CC[C@@H]2C(=O)Nc1cc(C(F)(F)F)ccc1C(F)(F)F (stereo partly drawn) [(1S,9aR,11aS)-6-Chloro-9a,11a-dimethyl-7-oxo-2,3,3a,3b,4,5,7,8,9,9a,9b,10,11,11a-tetradecahydro-1H-cyclopenta[i]phenanthridine-1-carboxylic acid (2,5-bis-trifluoromethyl-phenyl)-amide] |  | 0.2
